Measurements as given in ChEMBL document CHEMBL4325873, “Decreasing the CYP2D6 contribution to metabolism of a CK1ε inhibitor” (Bioorg Med Chem Lett, 2018).

Legend:
[1] = molecular target: Casein kinase I isoform epsilon (Homo sapiens, UniProt P49674); test: Inhibition of human CK1 epsilon using casein as substrate after 2 hrs in presence of [33P]-ATP by scintillation counting analysis
[2] = Drug metabolism in human liver microsomes; type: ADME, Microsome; conditions: read-out: Drug metabolism
CYP3A4 = CYP3A4 (Homo sapiens, UniProt P08684); test: Drug metabolism in human liver microsomes assessed as CYP3A4-mediated drug metabolism in presence of ketoconazole; type: ADME; conditions: with ketoconazole, read-out: Drug metabolism
CYP3A4, sequence (P08684 whole entry): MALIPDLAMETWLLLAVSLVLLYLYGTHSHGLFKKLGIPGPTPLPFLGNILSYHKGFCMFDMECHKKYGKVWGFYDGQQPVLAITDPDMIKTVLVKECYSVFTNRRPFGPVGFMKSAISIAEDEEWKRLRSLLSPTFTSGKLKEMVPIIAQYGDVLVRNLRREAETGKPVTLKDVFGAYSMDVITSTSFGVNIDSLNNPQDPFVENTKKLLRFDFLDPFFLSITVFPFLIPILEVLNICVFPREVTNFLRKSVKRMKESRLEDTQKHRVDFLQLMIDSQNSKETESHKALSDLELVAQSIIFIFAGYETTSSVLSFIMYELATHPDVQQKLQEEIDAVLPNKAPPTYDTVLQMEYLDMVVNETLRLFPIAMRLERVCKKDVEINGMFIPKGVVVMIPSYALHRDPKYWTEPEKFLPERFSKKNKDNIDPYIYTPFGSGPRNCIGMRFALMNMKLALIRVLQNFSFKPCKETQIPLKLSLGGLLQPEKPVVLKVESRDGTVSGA

Cytochrome P450 2D6 [3] = molecular target: T1, Cytochrome P450 2D6 (Homo sapiens, UniProt P10635); test: Drug metabolism assessed as recombinant CYP2D6 (unknown origin)-mediated 4-(3-(pyridin-4-yl)-6-(4-(pyrrolidin-1-yl)piperidin-1-yl)imidazo[1,2-b]pyridazin-2-yl)phenol formation; type: ADME; conditions: recombinant enzyme
T1 sequence (P10635 whole entry): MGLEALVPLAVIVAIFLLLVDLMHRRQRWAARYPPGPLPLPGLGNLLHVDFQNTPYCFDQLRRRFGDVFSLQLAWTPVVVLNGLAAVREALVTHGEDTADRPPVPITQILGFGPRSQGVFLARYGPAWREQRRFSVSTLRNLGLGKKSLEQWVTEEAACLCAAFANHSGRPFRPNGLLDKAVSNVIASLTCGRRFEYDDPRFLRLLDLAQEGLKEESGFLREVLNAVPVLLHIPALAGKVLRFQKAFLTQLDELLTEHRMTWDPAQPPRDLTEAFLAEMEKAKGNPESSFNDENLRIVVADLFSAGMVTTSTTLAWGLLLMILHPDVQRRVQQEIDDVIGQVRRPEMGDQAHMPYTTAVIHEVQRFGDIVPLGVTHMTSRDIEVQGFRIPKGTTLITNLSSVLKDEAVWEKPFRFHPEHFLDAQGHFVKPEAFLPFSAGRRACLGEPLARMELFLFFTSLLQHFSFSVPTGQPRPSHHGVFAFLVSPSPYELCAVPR

Cytochrome P450 2D6 [4] = molecular target: T1, Cytochrome P450 2D6; test: Drug metabolism assessed as recombinant CYP2D6 (unknown origin)-mediated 3-(3-(pyridin-4-yl)-6-(4-(pyrrolidin-1-yl)piperidin-1-yl)imidazo[1,2-b]pyridazin-2-yl)phenol formation; type: ADME; conditions: recombinant enzyme
Cytochrome P450 2D6 [5] = molecular target: T1, Cytochrome P450 2D6; test: Drug metabolism assessed as recombinant CYP2D6 (unknown origin)-mediated 3-(3-(pyridin-4-yl)-6-(4-(pyrrolidin-1-yl)-3,4-dihydropyridin-1(2H)-yl)imidazo[1,2-b]pyridazin-2-yl)phenol formation; type: ADME; conditions: recombinant enzyme

Casein kinase I isoform epsilon, sequence (P49674 whole entry, canonical isoform): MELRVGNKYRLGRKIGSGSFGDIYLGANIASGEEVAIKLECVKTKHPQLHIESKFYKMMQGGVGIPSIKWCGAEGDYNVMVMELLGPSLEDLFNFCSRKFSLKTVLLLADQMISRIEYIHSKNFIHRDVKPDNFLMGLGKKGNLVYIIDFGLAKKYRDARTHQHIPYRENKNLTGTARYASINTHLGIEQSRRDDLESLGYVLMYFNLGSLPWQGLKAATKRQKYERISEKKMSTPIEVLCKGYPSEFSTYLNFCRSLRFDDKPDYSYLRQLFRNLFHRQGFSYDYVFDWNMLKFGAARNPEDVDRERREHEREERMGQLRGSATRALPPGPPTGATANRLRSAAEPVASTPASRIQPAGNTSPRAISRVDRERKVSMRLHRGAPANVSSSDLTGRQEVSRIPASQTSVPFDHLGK

SMILES	IC50 [1] [nM]	metabolised [2] [%]	metabolised (CYP3A4) [%]	Drug metabolism (Cytochrome P450 2D6 [3])	Drug metabolism (Cytochrome P450 2D6 [4])	Drug metabolism (Cytochrome P450 2D6 [5])
Cc1cc(C)cc(-c2nc3ccc(N4CCNC(C)(C)C4)nn3c2-c2ccncc2)c1	8.6	13	5			
Fc1ccc(-c2nc3ccc(N4CCC(N5CCCC5)CC4)nn3c2-c2ccncc2)cc1	1	20	16			
C[C@H]1CN(c2ccc3nc(-c4ccccc4)c(-c4ccncc4)n3n2)CCN1	13.7	56	30			
CC1(C)CN(c2ccc3nc(-c4ccc(F)cc4)c(-c4ccncc4)n3n2)CCN1	14.6	52	27			
CC1(C)CN(c2ccc3nc(-c4ccccc4)c(-c4ccncc4)n3n2)CCN1	4.6	57	15			
Fc1ccc(-c2nc3ccc(N4CC5CC4CN5)nn3c2-c2ccncc2)cc1 (stereo not drawn)	15.7	18	0			
c1ccc(-c2nc3ccc(N4CCC(N5CCCC5)CC4)nn3c2-c2ccncc2)cc1	26	38.5	24.5	Metabolite_Detected	Metabolite_Detected	Metabolite_Detected
c1ccc(-c2nc3ccc(N4CC5CC4CN5)nn3c2-c2ccncc2)cc1 (stereo not drawn)	70	18	1			
C[C@H]1CN(c2ccc3nc(-c4ccc(F)cc4)c(-c4ccncc4)n3n2)CCN1	14.2	66	46			
CC1(C)CN(c2ccc3nc(-c4cc(F)cc(F)c4)c(-c4ccncc4)n3n2)CCN1	43	25	15			
